Laboratory results taken from EP1101499A2, “Diagnostic agents for pancreatic exocrine function” (Tokyo Gas Company Limited, priority 1999, dated 2001).
“And” between values parts separate entries of the source, which are not always exact repeats. Identical values can stand only once.

Legend:
[1] = system: pancreatic exocrine function; experiment: PFD test: oral BT-PABA, PABA excretion rate in urine; type: in vivo, rat; details: specificity 100%
Experimental: The rats of the model of chronic pancreatitis and control rats, which were kept for 3 to 4 weeks after the operation, were made to fast from 9:00 AM. At 4:00 PM, 3 mg/ml of BT-PABA (PFD solution for internal use, Eisai) was orally administered in an amount of 15 mg/kg. Urine was collected for 16 hours until 9:00 AM of the next day. The amount of the collected urine and the PABA concentration in the urine were determined using a PABA measuring kit to determine the excretion rate in urine (PFD test).

[2] = system: pancreatic exocrine function; experiment: 13C-breath test after oral administration to chronic pancreatitis (oleic acid model) and control/normal rats; type: in vivo, rat; details: for Δ^13C value at 30 minutes after the administration: group value n=4, 30 mg/kg orally; for Δ^13C (mean) value at 15 minutes after the administration: mean n=2, 420 mg/kg orally; for Δ^13C value at 10 minutes after the administration / Δ^13C value at 20 minutes after the administration: group value n=4, 250 mg/kg orally
Experimental: […] The rat of 9 weeks old was fixed without anesthesia in a rat holder for a microwave irradiation apparatus. The breath was collected at a rate of about 100 to 300 ml/min using a stroke pump (Variable Stroke Pump VS-500, Shibata Kagaku Kogyo) and introduced directly to a flow cell of a ^13CO2 analyzer EX-130S (Nihon Bunko). A Perma Pure drier (MD-050-12P, Perma Pure INC.) was set between the rat holder and stroke pump to remove out water vapor in the breath. CO2 concentration was stabilized, the rat was once removed out of the rat holder and Bz-DL-Phe-(^13C-Leu).Na dissolved in distilled water was administered into the stomach using an oral sonde.
Output data from the ^13CO2 analyzer were AD converted and put into a personal computer (Apple Power Macintosh 8500). Using a data processing soft ware Lab VIEW (National Instruments), 10 data points at every 100 msec were integrated and averaged in an interval of 5 seconds and converted to ^13C atom %, Δ^13C (‰), and CO2 concentration (%). In this manner, the ^13C breath test was continuously carried out. […] CO2 concentration in the collected breath was held at 3 ± 0.5%.
Δ^13C (%o) was calculated from the ^13C concentration in the exhaled CO2 at each time point (^13C tmin) and the ^13C concentration in standard CO2 (^13C std) according to the following equation: Δ^13 (C (‰) - [()^13 (C tmin -)^13 (C 0min)/)^13 C std] x 1000 [formula]

chymotrypsin = experiment: Degradation by chymotrypsin, released leucine determined by ninhydrin reaction; type: biochemical, bovine; details: 23 mM substrate, 0.16 mg/ml chymotrypsin, 20 mM HEPPS-Na pH 8.0, 37°C, 15 minutes
Experimental: Bz-DL-Phe-(^13C-Leu) was reacted with chymotrypsin and the degradation product, leucine, generated upon action of chymotrypsin was quantitatively determined by ninhydrin reaction. The reaction was carried out in 20 mM HEPPS-Na (pH 8.0), 23 mM Bz-DL-Phe- (^13C-Leu), 0.16 mg/ml chymotrypsin (from bovine pancreas, Worthington Biochemical Corporation, #1432, Lot 37A906) at 37°C for 15 minutes. After reaction, 50 µl of citrate buffer (citric acid monohydrate), 20 µl of ninhydrin solution (50 mg/ml solution in methyl cellosolve) and 100 µl of KCN solution (0.01 M aqueous KCN solution diluted 50 times with methyl cellosolve) were added to 100 µl of the reaction mixture and heated at 100°C for 15 minutes. After cooling the ninhydrin reaction mixture to room temperature, 150 µl of 60% (V/V) ethanol was added to 100 µl of the ninhydrin reaction mixture and stirred followed by determination of an absorbance at a wave length of 570 nm. An experiment wherein all the reactions that were carried out without adding Bz-DL-Phe-(^13C-Leu) was taken as a "blank," and leucine was used as a standard.

[3] = individual chronic pancreatitis rats #1-#4, sodium salt 250 mg/kg orally
[4] = individual normal rats #1-#4, sodium salt 250 mg/kg orally

O=C(O)c1ccc(NC(=O)[C@H](Cc2ccc(O)cc2)NC(=O)c2ccccc2)cc1 [PFD, N-benzoyl-L-tyrosyl-p-aminobenzoic acid]
sensitivity in the PFD test ([1]; 15 mg/kg orally, same group of rats as the Bz-DL-Phe-(^13C-Leu) breath test (n=8 / n=4)): 50% | sensitivity in the PFD test ([1]; same group of rats as the Bz-Ala-(^13C-Ala) breath test (n=8 / n=7)): 63% | sensitivity in the PFD test ([1]; same group of rats as the Bz-Gly-(^13C-Leu) breath test (n=10 / n=10)): 50%

Arg-(^13C-Leu)
Δ^13C value at 30 minutes after the administration ([2]; chronic pancreatitis rats): 4.37 ± 1.83 %o | Δ^13C (%o) at 30 min ([2]; individual chronic pancreatitis rats #1-#4, 30 mg/kg orally): 3.74 %o and 6.97 %o and 4.87 %o and 1.92 %o | Δ^13C (%o) at 30 min ([2]; individual normal rats #1-#4, 30 mg/kg orally): 10.30 %o and 13.74 %o and 15.37 %o and 10.08 %o | Δ^13C value at 30 minutes after the administration ([2]; normal rats): 12.37 ± 2.26 %o

Bz-Ala-Ala-Ala-Ala-(^13C-Gly)-Phe-Leu
Δ^13C (%o) at 15 min ([2]; individual chronic pancreatitis rats #1-#2, sodium salt 420 mg/kg orally): -1.90 %o and 3.12 %o | Δ^13C (%o) at 15 min ([2]; individual normal rats #1-#2, sodium salt 420 mg/kg orally): 23.47 %o and 43.16 %o

Bz-Ala-Ala-Ala-Ala-(^13C-Gly)-Phe-Leu.Na
Δ^13C (mean) value at 15 minutes after the administration ([2]; chronic pancreatitis rats): 0.61 %o | Δ^13C (mean) value at 15 minutes after the administration ([2]; normal rats): 33.32 %o

Bz-DL-Phe-(^13C-Leu)
rate of degradation (chymotrypsin): 1.72 nmole/mg chymotrypsin/min

Bz-DL-Phe-(^13C-Leu).Na
sensitivity ([2]; 250 mg/kg orally, Δ^13C at 10 minutes as check value, cut off set for specificity 100%, chronic pancreatitis n=8, control n=4): 100% | Δ^13C (‰) values at 10 minutes after the administration ([2]; chronic pancreatitis rats (n=8) compared with control rats (n=4), 250 mg/kg orally): smaller than the smallest value of Δ ^13C (‰) for the control rats

Bz-Gly-(^13C-Leu)-Na
sensitivity ([2]; 50 mg/kg orally, Δ^13C at 18 minutes as check value, specificity 100%, chronic pancreatitis n=10, normal n=10): 80%

Bz-L-Phe-(^13C-Leu)
Δ^13C (%o) at 10 min [2, 3]: 1.61 %o and 3.28 %o and 17.21 %o and 5.77 %o | Δ^13C (%o) at 10 min [2, 4]: 31.29 %o and 60.25 %o and 165.37 %o and 203.16 %o

Bz-L-Phe-(^13C-Leu).Na
Δ^13C value at 10 minutes after the administration ([2]; chronic pancreatitis rats): 6.97 ± 6.09 %o | Δ^13C value at 10 minutes after the administration ([2]; normal rats): 115.02 ± 71.26 %o

Bz-Tyr-(^13C-Leu)
Δ^13C (%o) at 20 min [2, 3]: 8.76 %o and 3.58 %o and 2.44 %o and -0.15 %o | Δ^13C (%o) at 20 min [2, 4]: 111.32 %o and 65.76 %o and 21.02 %o and 80.02 %o

Bz-Tyr-(^13C-Leu).Na
Δ^13C value at 20 minutes after the administration ([2]; chronic pancreatitis rats): 3.66 ± 3.24 %o | Δ^13C value at 20 minutes after the administration ([2]; normal rats): 69.53 ± 32.50 %o
